pIC50: −log10 of the molar value. Where two headings read alike, the source gives them in different places.
Key:
Mtb Lpd = Mtb Lpd (Mycobacterium tuberculosis (strain ATCC 25618 / H37Rv), UniProt P9WHH9); type: biochemical; conditions: for pIC50: read-out: LPD IC50; for IC50: 30 min preincubation, read-out: LPD IC50 (μM) w/ 30 min preincubation
[1] = Microsomal clearance (hLM); conditions: human liver microsomes
[2] = microsomes

SMILES: Cc1cc(S(=O)(=O)N2CCC[C@H]2C(=O)Nc2ccc(N3CCOCC3)c(Cl)c2)c2[nH]ncc2c1 [Example 5]
- pIC50 (Mtb Lpd): 7.38
- Human Liver Microsome Stability [1]: 133 µL/min/mg

SMILES: Cc1cc(S(=O)(=O)N(C)CC(=O)Nc2ccc3c(c2)OCCN3C2CCOCC2)c2n[nH]c(F)c2c1 [Example 121]
- pIC50 (Mtb Lpd): 7.60
- Human Liver Microsome Stability [2]: 125 µL/min/mg

SMILES: Cc1cc(S(=O)(=O)N(C)CC(=O)Nc2ccc(C3CCN(C)CC3)c(Cl)c2)c2[nH]ncc2c1 [Example 194]
- pIC50 (Mtb Lpd): 7.14
- Human Liver Microsome Stability [2]: 35 µL/min/mg

SMILES: Cc1cc(S(=O)(=O)N2CC[C@H]2C(=O)Nc2ccc3cnccc3c2)c2[nH]ncc2c1 [Example 85]
- pIC50 (Mtb Lpd): 7.64
- Human Liver Microsome Stability [2]: 93 µL/min/mg

SMILES: CN(CC(=O)Nc1ccn(C)c(=O)c1)S(=O)(=O)c1cc(C2CC2)cc2cn[nH]c12 [Example 35]
- pIC50 (Mtb Lpd): 6.82
- Human Liver Microsome Stability [2]: 91 µL/min/mg

SMILES: Cc1cc(S(=O)(=O)N(C)CC(=O)Nc2ccc3c(c2)OCCO3)c2[nH]ncc2c1 [Example 29]
- pIC50 (Mtb Lpd): 7.96
- Human Liver Microsome Stability [2]: 76 µL/min/mg

SMILES: O=C(Nc1ccc2c(c1)OCCN2C1CCOCC1)[C@@H]1CCN1S(=O)(=O)c1cc(Cl)cc2c(F)n[nH]c12 [Example 162]
- pIC50 (Mtb Lpd): 7.23
- Human Liver Microsome Stability [2]: 91 µL/min/mg

SMILES: Cc1cc(S(=O)(=O)N2CC[C@H]2C(=O)Nc2ccc(OCCN(C)C)c(Cl)c2)c2[nH]ncc2c1 [Example 199]
- IC50 (Mtb Lpd): 0.045 µM
- pIC50 (Mtb Lpd): 6.73
- Human Liver Microsome Stability [2]: -7 µL/min/mg

SMILES: Cc1cc(S(=O)(=O)N(C)CC(=O)Nc2ccn(C)c(=O)c2)c2n[nH]c(F)c2c1 [Example 95]
- pIC50 (Mtb Lpd): 7.29
- Human Liver Microsome Stability [2]: 21 µL/min/mg

SMILES: CC(C)(CO)N1CCOc2cc(NC(=O)[C@@H]3CCN3S(=O)(=O)c3cc(C(F)F)cc4cn[nH]c34)ccc21 [Example 177]
- pIC50 (Mtb Lpd): 6.71
- Human Liver Microsome Stability [2]: 177 µL/min/mg

SMILES: CC(=O)Nc1cccc(NC(=O)CN(C)S(=O)(=O)c2cc(C)cc3cc(C#N)[nH]c23)c1 [Example 217]
- IC50 (Mtb Lpd): 0.028 µM
- Human Liver Microsome Stability [2]: 177 µL/min/mg

SMILES: Cc1cc(S(=O)(=O)N(CC(=O)NC2=CC(=O)C(C)C=C2)C(C)C)c2[nH]ncc2c1 (stereo not shown) [Example 47]
- pIC50 (Mtb Lpd): 6.36
- Human Liver Microsome Stability [2]: -9 µL/min/mg

SMILES: Cc1cc(S(=O)(=O)N(C)CC(=O)Nc2ccc3c(c2)OCCN3C2COC2)c2[nH]c(C#N)cc2c1 [Example 189]
- IC50 (Mtb Lpd): 0.018 µM
- pIC50 (Mtb Lpd): 7.12
- Human Liver Microsome Stability [2]: 142 µL/min/mg

SMILES: Cn1ccc(NC(=O)[C@@H]2CCN2S(=O)(=O)c2cc(C=O)cc3c(F)n[nH]c23)cc1=O [Example 186, (S)-1-((3-fluoro-5-formyl-1H-indazol-7-yl)sulfonyl)-N-(1-methyl-2-oxo-1,2-dihydropyridin-4-yl)azetidine-2-carboxamide]
- pIC50 (Mtb Lpd): 5.98
- Human Liver Microsome Stability [2]: 153 µL/min/mg

SMILES: CN(CC(=O)Nc1ccc2c(c1)OCCN2C1CCOCC1)S(=O)(=O)c1cc(C(F)F)cc2cn[nH]c12 [Example 171, 2-((5-(difluoromethyl)-N-methyl-1H-indazole)-7-sulfonamido)-N-(4-(tetrahydro-2H-pyran-4-yl)-3,4-dihydro-2H-benzo[b][1,4]oxazin-7-yl)acetamide]
- pIC50 (Mtb Lpd): 7.11
- Human Liver Microsome Stability [2]: 102 µL/min/mg

SMILES: CN(CC(=O)Nc1ccc2c(c1)OCCN2C1COC1)S(=O)(=O)c1cc(C2(O)CC2)cc2cn[nH]c12 [Example 173]
- pIC50 (Mtb Lpd): 6.39
- Human Liver Microsome Stability [2]: 60 µL/min/mg

SMILES: Cc1cc(S(=O)(=O)N(C)CC(=O)Nc2ccn(C3CCOCC3)c(=O)c2)c2[nH]ncc2c1 [Example 100]
- pIC50 (Mtb Lpd): 7.30
- Human Liver Microsome Stability [2]: 6 µL/min/mg

SMILES: CCc1ccc(NC(=O)CN(C)S(=O)(=O)c2cc(C)cc3cc(C#N)[nH]c23)cc1Cl [Example 212]
- IC50 (Mtb Lpd): 0.035 µM
- Human Liver Microsome Stability [2]: 210 µL/min/mg

SMILES: Cc1cc(S(=O)(=O)N(C)CC(=O)Nc2ccc3c(c2)N(C2CCOCC2)CCO3)c2[nH]ncc2c1 [Example 163]
- pIC50 (Mtb Lpd): 7.51
- Human Liver Microsome Stability [2]: 94 µL/min/mg

SMILES: Cc1cc(S(=O)(=O)N(C)CC(=O)Nc2ccn(C)c(=O)c2)c2[nH]ncc2c1F [Example 43, 2-((4-fluoro-N,5-dimethyl-1H-indazole)-7-sulfonamido)-N-(1-methyl-2-oxo-1,2-dihydropyridin-4-yl)acetamide]
- pIC50 (Mtb Lpd): 7.30
- Human Liver Microsome Stability [2]: 42 µL/min/mg

SMILES: Cc1cc(S(=O)(=O)N(C)CC(=O)Nc2ccc3ccncc3c2)c2n[nH]cc2c1 [Example 63]
- pIC50 (Mtb Lpd): 7.49
- Human Liver Microsome Stability [2]: 63 µL/min/mg

SMILES: CN(CC(=O)Nc1ccc2c(c1)OCCN2C1CCOCC1)S(=O)(=O)c1cc(Cl)cc2c(F)n[nH]c12 [Example 165]
- pIC50 (Mtb Lpd): 7.43
- Human Liver Microsome Stability [2]: 162 µL/min/mg

Reference: US20240132480A1, “INHIBITORS OF MYCOBACTERIUM TUBERCULOSIS LIPOAMIDE DEHYDROGENASE” (Cornell University, priority 2021, published 2024)
